Measurements published in the supplement of paper PMC10307832.

Legend:
Test in all cases: relative viability (nuclei count vs DMSO), 5 days (fraction); higher = more cells survive
COR-L 105 = test system: COR-L 105
Method in brief: (§1)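 Five library-drug doses in √10 steps were combined with a fixed anchor-drug dose, or a single drug was given alone, by pin tool to lung cancer cell lines in 1536-well plates the day after seeding. Nuclei were stained and counted after 5 days. Relative viability is the nuclei count in treated wells over that in vehicle wells, taken as the median of duplicate plates.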

COR-L23 = test system: COR-L23
Method in brief: as §1

HARA = test system: HARA
Method in brief: as §1

HCC-15 = test system: HCC-15
Method in brief: as §1

HOP-62 = test system: HOP-62
Method in brief: as §1

NCI-H1355 = test system: NCI-H1355
Method in brief: as §1

NCI-H1395 = test system: NCI-H1395
Method in brief: as §1

NCI-H1734 = test system: NCI-H1734
Method in brief: as §1

NCI-H1755 = test system: NCI-H1755
Method in brief: as §1

NCI-H1793 = test system: NCI-H1793
Method in brief: as §1

NCI-H1993 = test system: NCI-H1993
Method in brief: as §1

NCI-H2009 = test system: NCI-H2009
Method in brief: as §1

NCI-H2170 = test system: NCI-H2170
Method in brief: as §1

NCI-H2228 = test system: NCI-H2228
Method in brief: as §1

NCI-H2347 = test system: NCI-H2347
Method in brief: as §1

NCI-H358 = test system: NCI-H358
Method in brief: as §1

NCI-H522 = test system: NCI-H522
Method in brief: as §1

NCI-H647 = test system: NCI-H647
Method in brief: as §1

NCI-H838 = test system: NCI-H838
Method in brief: as §1

SK-MES-1 = test system: SK-MES-1
Method in brief: as §1

UMC-11 = test system: UMC-11
Method in brief: as §1

`O=c1cc(-c2cccc3c2Sc2ccccc2S3)oc(N2CCOCC2)c1` + Cc1cc(Nc2cc(N3CCN(C)CC3)nc(Sc3ccc(NC(=O)C4CC4)cc3)n2)n[nH]1 [Tozasertib] (partner 0.1 µM) showed a relative viability (COR-L 105; first compound 0.08 µM) of 0.319, a relative viability (COR-L 105; first compound 0.253 µM) of 0.357 and a relative viability (COR-L 105; first compound 0.8 µM) of 0.32. The relative viability (COR-L 105; first compound 2.53 µM) was 0.363, the relative viability (COR-L 105; first compound 8 µM) was 0.414 and the relative viability (COR-L23; first compound 0.08 µM) was 0.202. It also gave a relative viability (COR-L23; first compound 0.253 µM) of 0.202, a relative viability (COR-L23; first compound 0.8 µM) of 0.188 and a relative viability (COR-L23; first compound 2.53 µM) of 0.148. For the same compound, the relative viability (COR-L23; first compound 8 µM) was 0.172, the relative viability (HARA; first compound 0.08 µM) was 0.099 and the relative viability (HARA; first compound 0.253 µM) was 0.0933. It also gave a relative viability (HARA; first compound 0.8 µM) of 0.112, a relative viability (HARA; first compound 2.53 µM) of 0.133 and a relative viability (HARA; first compound 8 µM) of 0.0897. It also gave a relative viability (HCC-15; first compound 0.08 µM) of 0.437, a relative viability (HCC-15; first compound 0.253 µM) of 0.428 and a relative viability (HCC-15; first compound 0.8 µM) of 0.504. It also gave a relative viability (HCC-15; first compound 2.53 µM) of 0.39, a relative viability (HCC-15; first compound 8 µM) of 0.307 and a relative viability (HOP-62; first compound 0.08 µM) of 0.452. It also gave a relative viability (HOP-62; first compound 0.253 µM) of 0.362, a relative viability (HOP-62; first compound 0.8 µM) of 0.426 and a relative viability (HOP-62; first compound 2.53 µM) of 0.324. It also gave a relative viability (HOP-62; first compound 8 µM) of 0.397, a relative viability (NCI-H1355; first compound 0.08 µM) of 0.521 and a relative viability (NCI-H1355; first compound 0.253 µM) of 0.511. For the same compound, the relative viability (NCI-H1355; first compound 0.8 µM) was 0.483, the relative viability (NCI-H1355; first compound 2.53 µM) was 0.52 and the relative viability (NCI-H1355; first compound 8 µM) was 0.346. For the same compound, the relative viability (NCI-H1395; first compound 0.08 µM) was 0.755, the relative viability (NCI-H1395; first compound 0.253 µM) was 0.738 and the relative viability (NCI-H1395; first compound 0.8 µM) was 0.762. The relative viability (NCI-H1395; first compound 2.53 µM) was 0.681, the relative viability (NCI-H1395; first compound 8 µM) was 0.703 and the relative viability (NCI-H1734; first compound 0.08 µM) was 0.271. The relative viability (NCI-H1734; first compound 0.253 µM) was 0.261, the relative viability (NCI-H1734; first compound 0.8 µM) was 0.265 and the relative viability (NCI-H1734; first compound 8 µM) was 0.26. The relative viability (NCI-H1755; first compound 0.08 µM) was 0.609, the relative viability (NCI-H1755; first compound 0.253 µM) was 0.582 and the relative viability (NCI-H1755; first compound 0.8 µM) was 0.592. The relative viability (NCI-H1755; first compound 2.53 µM) was 0.64, the relative viability (NCI-H1755; first compound 8 µM) was 0.567 and the relative viability (NCI-H1793; first compound 0.08 µM) was 0.362. The relative viability (NCI-H1793; first compound 0.253 µM) was 0.38, the relative viability (NCI-H1793; first compound 0.8 µM) was 0.325 and the relative viability (NCI-H1793; first compound 2.53 µM) was 0.228. It also gave a relative viability (NCI-H1793; first compound 8 µM) of 0.245, a relative viability (NCI-H1993; first compound 0.08 µM) of 0.518 and a relative viability (NCI-H1993; first compound 0.253 µM) of 0.55. For the same compound, the relative viability (NCI-H1993; first compound 0.8 µM) was 0.516, the relative viability (NCI-H1993; first compound 2.53 µM) was 0.559 and the relative viability (NCI-H1993; first compound 8 µM) was 0.621. For the same compound, the relative viability (NCI-H2009; first compound 0.08 µM) was 0.74, the relative viability (NCI-H2009; first compound 0.253 µM) was 0.725 and the relative viability (NCI-H2009; first compound 0.8 µM) was 0.8. For the same compound, the relative viability (NCI-H2009; first compound 2.53 µM) was 0.737, the relative viability (NCI-H2009; first compound 8 µM) was 0.578 and the relative viability (NCI-H2170; first compound 0.08 µM) was 0.78. For the same compound, the relative viability (NCI-H2170; first compound 0.253 µM) was 0.739, the relative viability (NCI-H2170; first compound 0.8 µM) was 0.894 and the relative viability (NCI-H2170; first compound 2.53 µM) was 0.715. For the same compound, the relative viability (NCI-H2170; first compound 8 µM) was 0.676, the relative viability (NCI-H2228; first compound 0.08 µM) was 0.213 and the relative viability (NCI-H2228; first compound 0.253 µM) was 0.186. For the same compound, the relative viability (NCI-H2228; first compound 0.8 µM) was 0.248, the relative viability (NCI-H2228; first compound 2.53 µM) was 0.163 and the relative viability (NCI-H2228; first compound 8 µM) was 0.18. The relative viability (NCI-H2347; first compound 0.08 µM) was 0.668, the relative viability (NCI-H2347; first compound 0.253 µM) was 0.605 and the relative viability (NCI-H2347; first compound 0.8 µM) was 0.351. It also gave a relative viability (NCI-H2347; first compound 2.53 µM) of 0.53, a relative viability (NCI-H2347; first compound 8 µM) of 0.404 and a relative viability (NCI-H358; first compound 0.08 µM) of 0.0969. It also gave a relative viability (NCI-H358; first compound 0.253 µM) of 0.101, a relative viability (NCI-H358; first compound 0.8 µM) of 0.12 and a relative viability (NCI-H358; first compound 2.53 µM) of 0.0965. It also gave a relative viability (NCI-H358; first compound 8 µM) of 0.111, a relative viability (NCI-H522; first compound 0.08 µM) of 0.632 and a relative viability (NCI-H522; first compound 0.253 µM) of 0.544. The relative viability (NCI-H522; first compound 0.8 µM) was 0.512, the relative viability (NCI-H522; first compound 2.53 µM) was 0.651 and the relative viability (NCI-H522; first compound 8 µM) was 0.562. For the same compound, the relative viability (NCI-H647; first compound 0.08 µM) was 0.325, the relative viability (NCI-H647; first compound 0.253 µM) was 0.0459 and the relative viability (NCI-H647; first compound 0.8 µM) was 0.224. It also gave a relative viability (NCI-H647; first compound 2.53 µM) of 0.171, a relative viability (NCI-H647; first compound 8 µM) of 0.462 and a relative viability (NCI-H838; first compound 0.08 µM) of 0.295. For the same compound, the relative viability (NCI-H838; first compound 0.253 µM) was 0.277, the relative viability (NCI-H838; first compound 0.8 µM) was 0.245 and the relative viability (NCI-H838; first compound 2.53 µM) was 0.273. For the same compound, the relative viability (NCI-H838; first compound 8 µM) was 0.266, the relative viability (SK-MES-1; first compound 0.08 µM) was 0.902 and the relative viability (SK-MES-1; first compound 0.253 µM) was 1.04. For the same compound, the relative viability (SK-MES-1; first compound 0.8 µM) was 0.879, the relative viability (SK-MES-1; first compound 2.53 µM) was 0.848 and the relative viability (SK-MES-1; first compound 8 µM) was 0.852. The relative viability (UMC-11; first compound 0.08 µM) was 0.198, the relative viability (UMC-11; first compound 0.253 µM) was 0.19 and the relative viability (UMC-11; first compound 0.8 µM) was 0.189. For the same compound, the relative viability (UMC-11; first compound 2.53 µM) was 0.202 and the relative viability (UMC-11; first compound 8 µM) was 0.234.
